Tests used:
CXCR2 [1] = molecular target: T1, CXCR2 (Homo sapiens, UniProt P25025); test: Bias analysis (bias plot, bias index) of β-arrestin1 recruitment inhibition versus Gαi1 activation inhibition, navarixin as reference; assay type: cell-based; conditions: for differences in bias index between the various CXCR2 ligands (H2): one-way ANOVA followed by Tukey's test; for bias index vs navarixin, statistical significance (H1): one-sample T-test
T1 construct: expressed in transfected cells
T1 sequence (P25025 1-360): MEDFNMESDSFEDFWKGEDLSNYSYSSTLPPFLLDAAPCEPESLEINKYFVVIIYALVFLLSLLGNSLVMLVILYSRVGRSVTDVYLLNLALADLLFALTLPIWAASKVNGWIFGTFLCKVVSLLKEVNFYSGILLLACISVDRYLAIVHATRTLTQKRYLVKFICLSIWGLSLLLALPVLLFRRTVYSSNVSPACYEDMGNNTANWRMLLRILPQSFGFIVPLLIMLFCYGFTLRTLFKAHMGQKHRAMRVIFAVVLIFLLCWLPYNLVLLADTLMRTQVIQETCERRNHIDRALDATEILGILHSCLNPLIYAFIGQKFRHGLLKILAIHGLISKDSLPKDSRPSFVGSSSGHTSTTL
Procedure: For signaling bias calculations, constraints were set to bottom values equal to zero. The calculated top values generated by nonlinear fit log (inhibitor) vs response (three parameters) in GraphPad 10.2.1 were taken as Imax. […] The bias index values were calculated, as is shown in calculation 2. Briefly, log(Imax/IC50) was calculated. […] Finally, the bias index was calculated by subtracting the ∆log (Imax/IC50) of the tested compound from the stated reference pathway from that of the pathway of interest. […] The statistical significance of H1 was evaluated using a one-sample T-test with Benjamini-Hochberg correction applied for multiple comparisons, whereas H2 was assessed using a one-way ANOVA followed by Tukey’s test.
Bias index=∆LogImax/IC50P1:β−arr1−∆LogImax/IC50P2:Gai1 .
Bias plots are equimolar comparisons between the two pathways of interest.

CXCR2 [2] = molecular target: T1, CXCR2; parameters: method as in Van Hoof et al., 2022; conditions: ref Van Hoof et al., 2022; cited from earlier work

differences in bias index between the various CXCR2 ligands (H2) (CXCR2 [1]) | bias index vs navarixin, statistical significance (H1) (CXCR2 [1]; CXCL1-induced responses) | SMILES | bias index vs navarixin, statistical significance (H1) (CXCR2 [1]; CXCL2, CXCL5, and CXCL6 responses) | calcium mobilization antagonism (CXCR2 [2]) | bias index vs navarixin, statistical significance (H1) (CXCR2 [1]; CXCL1-, CXCL2-, CXCL5-, CXCL6-, and CXCL8-induced responses)
statistically significant |  | CC(CCO)Nc1nc(SCc2cccc(F)c2F)nc2[nH]nnc12 (stereo not shown) [MVH-33] |  |  | 
statistically significant | highly significant | CC(CO)Nc1nc(SCc2cccc(F)c2F)nc2cnccc12 (stereo not shown) [MVH-3] | nonsignificantly different from navarixin | potent | 
 |  | CC(CO)Nc1nc(SCc2cccc(F)c2F)nc2oncc12 (stereo not shown) [MVH-24] |  | most potent | nonsignificantly different from navarixin
